BigSolDB 2.1

O=C(O)c1ccccc1O
solubility (mole fraction)
Settings | 298.15 K | 303.15 K | 308.15 K | 313.15 K | 318.15 K
in acetic acid | 0.0531 | 0.0617 | 0.0709 | 0.0785 | 0.0903
in acetone | 0.175 | 0.196 | 0.203 | 0.218 | 0.231
in ethyl acetate | 0.13 | 0.14 | 0.154 | 0.165 | 0.179
in methanol | 0.123 | 0.137 | 0.15 | 0.163 | 0.172

OC/C=C/c1ccccc1
solubility (mole fraction)
Settings | 253.15 K | 258.15 K | 263.15 K | 268.15 K | 273.15 K | 278.15 K | 283.15 K | 288.15 K | 293.15 K
in acetone | 0.28 | 0.322 | 0.363 | 0.414 | 0.47 | 0.526 | 0.579 | 0.625 | 0.674
in ethanol | 0.22 | 0.256 | 0.298 | 0.342 | 0.404 | 0.456 | 0.52 | 0.59 | 0.652
in ethyl acetate | 0.208 | 0.243 | 0.29 | 0.351 | 0.416 | 0.486 | 0.547 | 0.61 | 0.659
in isobutanol | 0.072 | 0.105 | 0.165 | 0.217 | 0.287 | 0.366 | 0.431 | 0.498 | 0.576
in isopropanol | 0.195 | 0.242 | 0.288 | 0.33 | 0.394 | 0.446 | 0.512 | 0.582 | 0.649
in methanol | 0.222 | 0.24 | 0.269 | 0.307 | 0.351 | 0.401 | 0.466 | 0.536 | 0.61
in methyl acetate | 0.172 | 0.225 | 0.27 | 0.326 | 0.392 | 0.452 | 0.523 | 0.591 | 0.646
in n-butanol | 0.125 | 0.162 | 0.214 | 0.269 | 0.342 | 0.412 | 0.479 | 0.553 | 0.608
in n-hexane | 0.00446 | 0.00664 | 0.0104 | 0.0143 | 0.0194 | 0.0248 | 0.0294 | 0.0352 | 0.0418
in n-propanol | 0.174 | 0.213 | 0.266 | 0.313 | 0.373 | 0.433 | 0.496 | 0.567 | 0.634
in sec-butanol | 0.089 | 0.142 | 0.191 | 0.255 | 0.321 | 0.395 | 0.459 | 0.53 | 0.592
